In experiment [1] the target is Porcine brain tubulin (unfractionated). In words: Tryptophan fluorescence quenching binding assay, porcine brain tubulin. As to conditions: dissociation constant, calculated.
A further experiment deals with T1, βI,βI-tubulin (Homo sapiens, UniProt P07437).
T1 construct: made in house; host or cells: E. coli BL21 (DE3)
In words: Tryptophan fluorescence quenching binding assay, recombinant βI,βI-tubulin homodimer. The conditions noted are these: dissociation constant, calculated. How it is done: (§1) The protein sequence of human αI-tubulin is given by UniProtKB accession number Q71U36 (gene name TUBA1A), the protein sequence of human βI-tubulin is given by UniProtKB accession number P07437 (gene name TUBB) and that of human βIII-tubulin is given by UniProtKB accession number Q13509 (gene name TUBB3). The cloning work for αI- and βI-tubulin was performed and reported previously. For the βIII human tubulin protein, the sequence was converted into DNA sequences with codons optimized for production in Escherichia coli, and for purification purposes, a His-tag was added at the N-terminus. The βIII-tubulin gene was inserted into a pET15b vector between the XhoI and NdeI restriction sites. The correct sequence, insertion, and orientation of the tubulin constructs were verified by DNA sequencing. Recombinant proteins were expressed in E. coli BL21 (DE3) host cells in LB medium supplemented with 100 μg/mL ampicillin. The cultures were grown at 37°C until an OD600 = 0.8 was reached, and the cells were induced with 1.0 mM isopropyl b-D-1-thiogalactopyranoside (IPTG) for 18 h at 25°C. After induction, the cells were harvested by centrifugation (6000 × g for 20 min at 4°C in SLC-6000 evolution sorvall rotor). The three variants of the tubulin protein were isolated from the inclusion bodies. […]

For a further experiment, the target named is T2, αI,βI-tubulin (Homo sapiens, UniProt P07437+Q71U36).
T2 construct: made in house; host or cells: E. coli BL21 (DE3)
T2 sequence (Q71U36 whole entry): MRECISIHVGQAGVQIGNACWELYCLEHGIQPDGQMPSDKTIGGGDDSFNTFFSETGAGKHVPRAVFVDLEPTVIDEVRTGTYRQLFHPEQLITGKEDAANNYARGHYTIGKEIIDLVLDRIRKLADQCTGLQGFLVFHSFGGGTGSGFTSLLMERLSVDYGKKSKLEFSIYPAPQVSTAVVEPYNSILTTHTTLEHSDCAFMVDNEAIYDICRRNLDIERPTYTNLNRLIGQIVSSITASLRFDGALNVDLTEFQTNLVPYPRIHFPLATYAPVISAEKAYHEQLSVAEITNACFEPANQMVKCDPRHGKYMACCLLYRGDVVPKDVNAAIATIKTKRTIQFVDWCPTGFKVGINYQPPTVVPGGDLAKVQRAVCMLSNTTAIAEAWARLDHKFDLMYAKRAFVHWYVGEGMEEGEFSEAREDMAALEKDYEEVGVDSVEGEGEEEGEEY
T2 sequence (P07437 whole entry): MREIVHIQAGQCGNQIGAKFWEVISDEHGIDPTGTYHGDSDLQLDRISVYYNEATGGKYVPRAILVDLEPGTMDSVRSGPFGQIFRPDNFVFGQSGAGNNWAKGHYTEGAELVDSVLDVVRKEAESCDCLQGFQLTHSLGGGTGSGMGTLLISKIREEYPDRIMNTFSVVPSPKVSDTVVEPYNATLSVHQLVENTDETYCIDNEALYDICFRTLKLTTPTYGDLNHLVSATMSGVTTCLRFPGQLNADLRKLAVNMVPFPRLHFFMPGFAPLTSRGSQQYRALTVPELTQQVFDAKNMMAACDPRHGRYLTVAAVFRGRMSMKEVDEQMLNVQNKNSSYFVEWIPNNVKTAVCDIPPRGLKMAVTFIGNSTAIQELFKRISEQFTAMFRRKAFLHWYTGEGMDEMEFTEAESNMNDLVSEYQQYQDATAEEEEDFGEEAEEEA
Put plainly: Tryptophan fluorescence quenching binding assay, recombinant αI,βI-tubulin heterodimer. As to conditions: dissociation constant, calculated. How it is done: as §1

For the next experiment, the target named is T3, αI,βIII-tubulin (Homo sapiens, UniProt Q13509+Q71U36).
T3 construct: His-tag (N); made in house; host or cells: E. coli BL21 (DE3)
T3 sequence (Q71U36 whole entry): as the sequence (Q71U36 whole entry) above
T3 sequence (Q13509 whole entry): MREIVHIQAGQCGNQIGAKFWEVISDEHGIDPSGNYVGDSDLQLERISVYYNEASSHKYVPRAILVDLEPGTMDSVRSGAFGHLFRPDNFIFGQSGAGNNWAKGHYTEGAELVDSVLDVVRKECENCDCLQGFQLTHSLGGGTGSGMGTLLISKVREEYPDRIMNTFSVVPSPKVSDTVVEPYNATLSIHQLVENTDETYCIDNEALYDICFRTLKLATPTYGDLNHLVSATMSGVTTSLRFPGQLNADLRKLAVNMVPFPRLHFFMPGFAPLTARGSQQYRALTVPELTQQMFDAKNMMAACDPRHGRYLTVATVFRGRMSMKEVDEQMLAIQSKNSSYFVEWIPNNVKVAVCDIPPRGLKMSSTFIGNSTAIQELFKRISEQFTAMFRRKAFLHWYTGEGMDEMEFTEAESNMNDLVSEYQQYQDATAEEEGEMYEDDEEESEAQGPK
In words: Tryptophan fluorescence quenching binding assay, recombinant αI,βIII-tubulin heterodimer. The conditions noted are these: dissociation constant, calculated. How it is done: as §1

For experiment [2], the system named is SKBR-3 breast cancer cell line. In words: MTT assay, SKBR-3. The class given is cell-based. The conditions noted are these: Homo sapiens, SK-BR-3; SKBR-3, 24 h treatment (21 h + 3 h MTT); read-out: IC50, cell viability (MTT). How it is done: (§2) The human breast cancer cell lines SKBR-3 and paclitaxel-resistant SKBR-3 were kindly provided by Marc St. George (University of Alberta, Canada). Both cell lines were grown in RPMI 1640 medium (GIBCO) with 10% fetal calf serum and 1 mM L-glutamine 1% penicillin/streptomycin mixture under a humidified atmosphere containing 5% CO2. Addition of 16.65 nM paclitaxel to the paclitaxel-resistant cell line is mandatory to keep the acquired resistance at the same efficiency level.
(§3) The human breast cancer cell lines SKBR-3 and paclitaxel-resistant SKBR-3 (1 × 10^4 cells per well) were seeded into 96-well plates. […] After 21 h incubation, 50 μL of MTT (1 mg/mL) solution was added and the plates were incubated for an additional 3 h. After centrifugation, supernatant was removed from each well and […] of dimethyl sulfoxide (DMSO) was added to dissolve the insoluble formazan crystals. The absorbance was measured at 570 nm and 690 nm subtracted as a background, using microplate reader. The data was plotted using GraphPad Prism 5.0 software. IC50 and statistical analysis (t-test) were calculated using the same software.
(In general: Tetrazolium dyes change colour on reduction, which living cells bring about.)

Experiment [3] relates to paclitaxel-resistant SKBR-3 breast cancer cell line. In words: MTT assay, paclitaxel-resistant SKBR-3. The class given is cell-based. The conditions noted are these: Homo sapiens, SK-BR-3, paclitaxel-resistant SKBR-3, 24 h treatment (21 h + 3 h MTT); read-out: IC50, cell viability (MTT). How it is done:
as §2, §3

The test system of a further experiment is tubulin. In words: Microtubule assembly assay (turbidity). The class given is biochemical. As to conditions: 10 μM compound, tubulin 3 mg/mL, 37°C, turbidity at 340 nm. The method, then: The turbidity was recorded on 96-half area well plates by microplate reader at 340 nm as an indicator for microtubules formation. […] Tubulin at a concentration of 3mg/mL in tubulin buffer (80 mM PIPES pH 6.9, 2 mM MgCl2, 0.5 mM EGTA, 1 mM GTP, 10.2% glycerol) was kept at 4°C before being added to the wells and shifting to 37°C. The absorbance was measured using the kinetic absorbance mode. DMSO solutions of paclitaxel and colchicine (10 μM) were used as controls.

We go through two compounds from paper PMC5130025, “A new antiproliferative noscapine analogue: chemical synthesis and biological evaluation” (Oncotarget, 2016).

T1 sequence (P07437 whole entry): as the sequence (P07437 whole entry) above

`COc1ccc2c(c1OC)C(=O)O[C@@H]2[C@H]1c2c(cc3c(c2OC)OCO3)CCN1C` [Noscapine]: the Kd (usually the equilibrium constant for the complex coming apart) in experiment [1] was 265 µM; at βI,βI-tubulin it was 426 µM; at αI,βI-tubulin it was 293 µM; on αI,βIII-tubulin, 289 µM. For the same compound, the IC50 in experiment [2] and in experiment [3] was approximately 100 µM throughout. Moreover, the “Effect on MT polymerization” value with tubulin is on record as “stabilize MT”.
On to `COc1ccc2c(c1OC)C(=O)O/C2=C\c1ccc2c(c1)OCO2` [Compound 8, (Z)-3-(benzo[d][1,3]dioxol-5-ylmethylene)-6,7-dimethoxyisobenzofuran-1(3H)-one], for which the IC50 (commonly the concentration needed to halve the response being measured) in experiment [2] was approximately 40 µM; in experiment [3], approximately 64 µM. In addition, in the experiment with tubulin, the “Effect on MT polymerization” value was “destabilize MT”.
